Reference: patent publication US20140341939A1 (NATIONAL UNIVERSITY CORPORATION KOCHI UNIVERSITY, priority 2011, published 2014)
“Also recorded” adds a separate entry of the source. Where no end group is shown, it is not given here.

Legend:
ACE = target: T1, ACE (Mus musculus, UniProt P09470); assay: ACE activity of antigen presenting cell (CH1-IA^d cells, Abz-FRK(Dnp)P-OH substrate); assay type: cell-based; conditions: 2.5 mM inhibitor, preincubated 37° C. 20 min; 10 μM Abz-FRK(Dnp)P-OH (FIG. 25)
T1 construct: endogenous in cells; host or cells: CH1-IA^d cells (living, in PBS)
T1 sequence (P09470 35-1312): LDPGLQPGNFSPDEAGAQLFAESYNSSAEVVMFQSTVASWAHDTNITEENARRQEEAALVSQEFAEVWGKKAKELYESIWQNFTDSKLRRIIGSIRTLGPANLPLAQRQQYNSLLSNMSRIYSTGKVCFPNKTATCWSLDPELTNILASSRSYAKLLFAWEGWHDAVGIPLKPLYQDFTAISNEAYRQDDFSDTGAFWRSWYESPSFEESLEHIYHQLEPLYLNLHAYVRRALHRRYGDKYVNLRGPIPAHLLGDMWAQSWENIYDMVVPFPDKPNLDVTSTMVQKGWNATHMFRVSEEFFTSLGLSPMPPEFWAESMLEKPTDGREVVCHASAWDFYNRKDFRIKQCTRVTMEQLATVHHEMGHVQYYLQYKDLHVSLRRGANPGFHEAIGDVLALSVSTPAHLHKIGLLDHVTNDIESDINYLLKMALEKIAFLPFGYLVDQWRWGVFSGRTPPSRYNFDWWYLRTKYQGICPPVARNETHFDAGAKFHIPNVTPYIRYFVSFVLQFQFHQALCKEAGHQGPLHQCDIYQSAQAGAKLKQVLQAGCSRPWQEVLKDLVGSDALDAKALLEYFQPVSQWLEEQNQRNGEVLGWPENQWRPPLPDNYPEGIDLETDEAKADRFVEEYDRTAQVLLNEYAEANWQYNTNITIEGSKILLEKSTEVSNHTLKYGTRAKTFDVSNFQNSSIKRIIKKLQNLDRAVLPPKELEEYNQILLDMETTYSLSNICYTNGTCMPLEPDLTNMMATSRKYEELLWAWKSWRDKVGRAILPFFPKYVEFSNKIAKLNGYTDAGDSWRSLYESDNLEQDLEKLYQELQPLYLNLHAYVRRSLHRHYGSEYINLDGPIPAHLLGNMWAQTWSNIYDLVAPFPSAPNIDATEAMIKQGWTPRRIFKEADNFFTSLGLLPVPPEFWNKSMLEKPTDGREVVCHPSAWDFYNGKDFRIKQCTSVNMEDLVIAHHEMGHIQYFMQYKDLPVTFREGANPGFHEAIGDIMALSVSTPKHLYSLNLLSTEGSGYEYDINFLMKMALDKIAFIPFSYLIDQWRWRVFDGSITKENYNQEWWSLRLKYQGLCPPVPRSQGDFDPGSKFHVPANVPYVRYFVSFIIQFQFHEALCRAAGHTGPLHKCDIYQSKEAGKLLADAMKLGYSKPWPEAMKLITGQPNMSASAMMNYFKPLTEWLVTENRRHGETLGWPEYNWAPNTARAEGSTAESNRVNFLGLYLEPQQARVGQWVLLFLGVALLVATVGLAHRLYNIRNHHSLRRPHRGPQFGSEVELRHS
Procedure: The ACE activity of the cell surface was measured by a modified method of the method described in Sabatini, R. et al., Anal Biochem 363: 255-262, 2007.
10 μM Abz-FRK(Dnp)P-OH (Sigma, St. Louis) was added and the cells were incubated at 37° C. for a given time. The reaction was quenched by placing them on ice. After centrifugation, fluorescence in the supernatant was measured at excitation wavelength of 320 nm and emission wavelength of 420 nm (FIG. 25).

[1] = system: peptidase activity in the serum; assay: Effect of peptidase inhibitor on OVII peptide digestion by mouse serum; assay type: biochemical; conditions: inhibitor-containing buffer (FIGS. 22-24)
Source text: Given the above-mentioned Examples, the inventor examined the effect of peptidase inhibitor on the peptide digestion to identify the peptidase in the serum.

DO11.10 cells [2] = assay: Growth of CD4 T cells: proliferation of DO11.10 cells by OVII modified peptides (3H-thymidine); assay type: cell-based, mouse
serum peptidase [3] = system: serum peptidase
Procedure: (§1) Peptide was digested in TBS containing 10% fresh mouse serum or fresh human serum. After incubation at 37° C. for a given time, 1% trifluoro acid was added to remove various serum proteins by precipitation. After short centrifugation, the soluble fraction was analyzed by reversed-phase HPLC using a C18 analysis column. To normalize variation in the total amount of the peptide loaded for each HPLC, the peak of non-protein components contained in the serum, which is absorbed at the wavelength of 220 nm, was used as an internal control. The peak area of undigested peptides was quantitatively monitored by Chromatopac C-R8A (Shimadzu Corp., Kyoto, Japan), and the amount of the remaining peptide was calculated.
(§2) Therefore, the inventor examined the digestion resistance of peptide in vitro in a 10% fresh mouse serum. The amount of a remaining undigested peptide was quantified by HPLC.

in vitro = conditions: mouse, serum
Procedure: as §1, §2

serum peptidase [4] = assay: Degradation of peptide in 10% fresh mouse serum (HPLC of remaining peptide); conditions: 10% fresh mouse serum, up to 16 hr (FIG. 21)
Procedure: as §1, §2

[5] = as above; conditions: mouse, 10% fresh mouse serum
Procedure: as §1, §2

EG7 tumor = assay: Antitumor activity by in vivo immunization with OVA-derived peptides (EL4 / EG7 tumor); conditions: CBF1 mouse, peptide-loaded LPS blast i.p. 3 times; EL4 / EG7 tumor (FIG. 8)
Source text: CBF1 mouse was immunized with LPS blast of splenocyte pulsed with either λ repressor peptide ([…]; SEQ ID NO: 39) or OVAII peptide as a Th epitope peptide, and K^b-binding OVA-I peptide, which is a CTL inducing peptide. LPS blast derived from one spleen was pulsed with peptide, and intraperitoneally injected to immunize two mice. The next day of the third immunization, 9×10^6 EL4 cells and 1.2×10^7 EG7 cells were intradermally transplanted in a pair on the back skin of the mice. The tumor size was measured every other day. Immunization was performed once again 2 weeks from the tumor transplantation.
To verify the anti-tumor effect of inducing tumor-specific Th cells in vivo, the inventor compared the immunization protocol that induces 1. CTL alone, 2. CTL and a third party antigen-specific Th cell, and 3. CTL and tumor-specific Th cell. As the antigen presenting cell, LPS blast of spleen cell was used, and the APC loaded with each peptide alone or the mixture of each peptide was injected intraperitoneally 3 times (once per week). On the day of third immunization, 9×10^6 EL4 and 1.2×10^7 EG7 tumor were innoculated on the opposite sides of the back, and the tumor diameter was measured from day 4.

DO11.10 cells [6] = assay: Antigen presentation by F2-IA^d vascular endothelial cells (CD69 expression by DO11.10 cells); assay type: cell-based, mouse
Procedure: EL4 cells were first opsonized with RGD peptide. Next, 5 mg/ml OVA protein was loaded on the cytoplasm by osmotic pressure loading. After sufficient washing, 2×10^6 EL4 cells were added to a confluent culture medium of F2-IA^d cells on a 24-well plate (cultured for 2 days in advance in the presence of 500 U/ml rmIFN-γ). As a control, EL4 and EG7 mock-loaded with PBS were RGD-modified in the same manner and used. EL4 and other target cells were added to F2-IA^d, and the cell mixture was cultured for 24 hr. As for the control well wherein F2-IA^d cells were directly loaded with OVAII peptide, the cells were pulsed with peptide for 2 hr at the end of the culture. After removing the non-adherent cells and debris of dead cells, the surface of the adhered F2-IA^d cells was sufficiently washed. In an antigen presentation inhibitory experiment using chloroquine, 100 μM chloroquine was added 30 min before addition of EL4, EL4 loaded with OVA or 0.25 mg/ml OVA protein. Furthermore, F2-IA^d cells were cultured for 3 days in the continuous presence of chloroquine.
Whether the F2-IA^d cells presented the target antigen polypeptide on the cell surface was evaluated by monitoring the expression of CD69 by DO11.10 cells. The antigen-presenting F2-IA^d cells and DO11.10 cells were mixed and centrifuged to contact the cells with one another. After 6 hr and 24 hr, the cells were stained with biotin-labeled anti CD69 mAb (H1.2F3, BD Biosciences), and the expression of CD69 by DO11.10 cells was detected by flow cytometry (stained positive with FITC-labeled KJ1.26 (anti clonotypic TCR mAb)).

DO11.10 cells [7] = assay: Cell migration test through F2-IA^d cell layer (Transwell); assay type: cell-based, mouse
Procedure: F2-IA^d cells were cultured until confluence on an insert of Transwell plate (BD Labware, Billerica, Calif.). The cells were cultured in the presence of 500 U/ml rmIFN-γ for the last 3 days of culture. In addition, F2-IA^d cells were pulsed with various concentrations of OVAII peptide for the last 2 hr of culture. After the culture, F2-IA^d cells were washed and CD4^+ cells were isolated by negative selection (Dynal mouse CD4 negative isolation kit (Invitrogen)) from DO11.10 transgenic spleen cells to not less than 95% purity, which were added by 4×10^6 cells per well. The cells were incubated at 37° C., and the number of DO11.10 that migrated under the chamber in 6 hr was counted.

I-A^d molecule = target: T2, I-A^d molecule (Mus musculus, UniProt P01921+P04228); assay: Peptide-binding assay on CH1-IA^d cells (FITC-streptavidin, flow cytometry); conditions: CH1-IA^d cells (FIG. 17)
T2 construct: expressed in transfected cells; host or cells: CH1 cells, retroviral transduction with pMX (I-Aβ-IRES-I-Aα)
T2 sequence (P04228 24-256): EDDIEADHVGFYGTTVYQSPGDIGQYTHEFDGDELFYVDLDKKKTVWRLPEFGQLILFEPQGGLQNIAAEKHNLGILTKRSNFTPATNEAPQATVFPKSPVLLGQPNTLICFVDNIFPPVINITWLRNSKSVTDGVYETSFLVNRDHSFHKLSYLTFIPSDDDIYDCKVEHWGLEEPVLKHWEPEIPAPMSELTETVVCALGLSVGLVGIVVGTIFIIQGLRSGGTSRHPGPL
T2 sequence (P01921 28-265): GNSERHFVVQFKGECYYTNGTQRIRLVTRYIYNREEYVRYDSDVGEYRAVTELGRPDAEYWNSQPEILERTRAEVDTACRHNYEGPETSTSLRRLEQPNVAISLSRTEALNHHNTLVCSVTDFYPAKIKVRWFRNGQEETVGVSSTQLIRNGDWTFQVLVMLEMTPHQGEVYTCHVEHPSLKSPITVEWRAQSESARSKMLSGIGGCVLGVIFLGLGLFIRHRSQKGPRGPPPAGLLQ
Procedure: The CH1-IA^d or CH1-IA^b cells were suspended in 2% BSA IMDM to 2×10^6 cells/ml. The cell suspension (100 μl) was added to peptide (100 μl) continuously diluted with serum-free IMDM. After incubating at 37° C. for 2 hr, 6 hr or 16 hr, the cells were washed and stained with FITC-streptavidin. The amount of peptide bound to the cells was measured by flow cytometry.

[8] = system: FBL3 erythroleukemia cells; assay: In vivo antitumor activity in FBL3 tumor mice immunized with MHC class I and class II peptide; conditions: CBF1 mouse
Source text: In the immunization experiment using mouse, the mouse was immunized with PbW332bPβ peptide as a Th-inducing peptide, and Db126 peptide as a CTL inducing peptide. As a tumor to be inoculated to the mouse, FBL3 erythroleukemia cell that highly expresses natural WT1 tumor antigen was used. FBL3 is a cell line that was transformed by infection with Friend leukemia virus, and has high possibility of also expressing virus antigen. In fact, when 2×10^7 FBL3 cells were intradermally injected on the back of the mouse, they grew into a solid tumor. However, the tumor had the tendency to shrink naturally after reaching the maximum size. […] Over time, the tumor sometimes started to grow rapidly in a long-term observation.
CBF1 mouse was immunized in advance by subcutaneous injection of 50 nmoles of Db126 peptide alone, or Db126 peptide and 50 nmoles of W332 peptide, to 4 sites in the top, bottom, left and right of the back. A vaccine of 5×10^7 Bordetella pertussis whole cells was added as an adjuvant to all immunization groups including control PBS inoculation group. The mouse was immunized 3 times (once per week) and then 2×10^7 FBL3 cells were subcutaneously injected to the back.

[9] = low concentration of pulsed peptide (0.1 μM or less) (FIG. 5)

## c1cnc2c(c1)ccc1cccnc12 [o-phenanthrolin]
ACE
  inhibition of peptide degrading enzyme activity associated with living cells: inhibited
[1]
  inhibition of OVII peptide digestion / peptidase activity in serum: almost completely inhibited

## C[C@H](CS)C(=O)N1CCC[C@H]1C(=O)O [captopril]
[1]
  inhibition of OVII peptide digestion / peptidase activity in serum: suppressed in a concentration-dependent manner
DO11.10 cells [2]; 2.5 mM captopril in medium (FIGS. 14, 15)
  sensitization activity of OVII on addition of captopril: improved the sensitization activity of OVII to a level close to that of OVIIPA peptide
DO11.10 cells [2]; 5 mM captopril
  survival of DO11.10 cells: cannot survive

## ISQAVHAAHAEINEA [OVII]
Serum peptidase [3]
  undigested peptide left: undigested peptide was not left
In vitro
  metabolised at 2 h: 40%

## CC(C)C[C@H](NC(=O)[C@@H](O)[C@H](N)Cc1ccccc1)C(=O)O [bestatin]
[1]
  inhibition of OVII peptide digestion / peptidase activity in serum: about half of the peptidase activity was suppressed

## PSISQAVHAAHAEINEA [POVII]
Serum peptidase [4]
  digestion resistance to serum peptidases (in words): very strong enzyme resistance
[5]
  remaining at 16 h: ~70%

## ISQAVHAAHAEINEAGR (peptide inducing Th) [OVAII]
EG7 tumor
  tumor control, Th peptide together with OVA-I: enabled better control of the tumor; also recorded: completely disappeared in a part of the mice
DO11.10 cells [6]; F2-IA^d cells pulsed with 0.1 μM peptide
  expression of CD69 in DO11.10 cells: induced expression of CD69 in DO11.10 cells to the same level as when OVA-loaded EL4 was incorporated
DO11.10 cells [6]; F2-IA^d cells pulsed with peptide (FIG. 2)
  stimulation of DO11.10 cells by peptide-pulsed endothelial cells: could stimulate DO11.10 cells
DO11.10 cells [6]; [9]
  induction of the expression of CD69: induction of the expression of CD69 was hardly confirmed
DO11.10 cells [7]; high concentration of pulsed peptide (FIG. 5)
  migration of DO11.10 cells through F2-IA^d cell layer: did not migrate by penetrating the F2-IA^d cell layer
DO11.10 cells [7]; [9]
  migration of DO11.10 cells through F2-IA^d cell layer: actively migrated, and penetrated the F2-IA^d cell layer

## ISQAVHAAHAEINEAR [OVII+]
I-A^d molecule
  binding activity to I-A^d molecule, effect of added Arg: did not affect the binding activity to I-A^d molecule

## KRYFKLSHLQMHSRKH [W332, WT1 antigen-derived polypeptide]
[8]; 50 nmoles each peptide s.c. with Wc adjuvant, 3 times, FBL3 tumor (FIG. 29)
  antitumor activity, Th-inducing peptide together with Db126 peptide: stronger antitumor activity than Db126 single peptide immunization
[8]; FBL3 tumor, vs Wc alone, Db126 or W332 single immunization
  long-term remaining tumor, Th-inducing peptide together with Db126 peptide: tends to shrink
